Measurements reported in US8546338B2, “Self-assembling hydrogels based on dicephalic peptide amphiphiles” (Johnson & Johnson Consumer Companies, Inc., priority 2010, dated 2013).

How the values were obtained:
[1] = Gelation experiments: inversion test for self-supporting hydrogels; format: physicochemical; conditions: for Gelation (self-supporting gel on inversion), DMEM: DPA solution in water mixed 1:1 with DMEM; for Gelation (self-supporting gel on inversion), DMEM / Concentration at which gel forms, DMEM: no calcium added; for Gelation (self-supporting gel on inversion), PBS / Gelation (self-supporting gel on inversion), Water: final concentrations 1, 2 and 4 weight percent tested; for Concentration at which gel forms, DMEM: mixed with DMEM; for Gelation (self-supporting gel on inversion), Calcium added: DMEM plus 10 μl of 100 mg/cc calcium chloride solution; for Concentration at which gel forms, Calcium added: DMEM with calcium chloride added; for Minimal concentration at which gel formed: in DMEM with calcium added
Description: (§1) Inversion tests were performed to determine qualitatively under which conditions the various DPAs formed self-supporting hydrogels. The various types of DPAs were tested by dissolving them in ultrapure water (>18 MΩ resistivity) at double the desired final concentration followed by mixing in a 1:1 ratio with different liquid mediums. Gelation was deemed to have occurred if the gel supported its own weight upon inverting the vial (FIG. 3A and FIG. 3B). Gelation was tested at final concentrations of 1, 2 and 4 weight percent. We tested phosphate buffered saline (PBS), and Dulbecco's modified eagle media (DMEM) as liquid medium. Typical scale is 100 μl each of DPA solution in water and mixing medium but other scales have been tested. Finally, if no spontaneous gelation occurs, 10 μl of 100 mg/cc calcium chloride solution was added to induce gelation.

[2] = Oscillating rheology, strain sweep; format: physicochemical; conditions: 2 wt % gels in DMEM
Description: (§2) Oscillating rheology by the parallel plates method (radius=25 mm) was performed on 400 μl gels to assess the mechanical strengths of gels. Time sweeps were performed to evaluate kinetics of formation at a constant strain rate of 1% and frequency of 1 rad/s. Strain sweeps were performed ranging from 1-100% strain in increments of 2% at a constant frequency of 1 rad/s. Cross-over of G′ and G″ was used to determine the gel point and point of breakdown. Time sweeps were initiated immediately after mixing the solutions that lead to DPA hydrogel formation. In the strain sweeps, the gels were allowed to form on the plate for 30 minutes before the measurement is initiated.
Strains sweeps were performed on 2 wt % Gly-Phe-Gly-Phe-Gly-Phe-Gly-Gln-Gln-Ser (SEQ ID NO: 8), Gly-Phe-Gly-Phe-Gly-Phe-Gly-Gln-Gly-Ser (SEQ ID NO: 12) and Gly-Phe-Gly-Phe-Gly-Phe-Gly-Asn-Asn-Ser (SEQ ID NO: 11) gels in DMEM (FIG. 8). Gels were allowed to form for 30 minutes before the experiment was initiated.

[3] = Oscillating rheology, time sweep (kinetics of formation); format: physicochemical; conditions: for Gel point after mixing: 2 wt % gels in DMEM
Description: as §2
The gelation process was initiated on the plate at 25° C. by the addition of 10 μl of 100 mg/ml calcium chloride solution to a solution of the DPA in DMEM.

[4] = system: Sprague-Dawley rats; assay: Biocompatibility study, gel injected into intra-gluteal muscle pocket; format: in vivo; conditions: rat; for Tissue response (histology): harvest at 3, 7 and 28 days
Description: A biocompatibility study was performed on Gly-Val-Ala-Val-Ala-Val-Ala-Glu-Gly-Glu (SEQ ID NO: 4), Gly-Phe-Gly-Phe-Gly-Phe-Gly-Glu-Gly-Glu (SEQ ID NO: 5) and Gly-Phe-Gly-Phe-Gly-Phe-Gly-Gln-Gln-Ser (SEQ ID NO: 8) DPAs. Lyophilized DPA powders were e-beam sterilized in 1.5 cc polypropylene cryovials at 15 KGy. Gels were pre-formed in 1 cc syringes by mixing a 4 wt % DPA solution in water for injection in a 1:1 ratio with DMEM followed by immediate aspiration into the syringe. In the case of the formulations with the Glu-Gly-Glu (SEQ ID NO: 27) sequence in the solubility enhancing region, 10 μl of a sterile 100 mg/cc calcium chloride solution was mixed in before aspiration into the syringe. An intra-gluteal muscle pocket was created in Sprague-Dawley rats after which 100 μl of gel was injected using a catheter fitted to the syringe. Subsequently, the pocket was closed with polyglactin 910 sutures sold under the tradename VICRYL (Ethicon, Somerville, N.J.). Tissue was harvested at 3, 7 and 28 days after implantation.

[5] = Cell viability of encapsulated hUTCs in DPA gels (Live/Dead); format: cell-based, human; conditions: human, human umbilical cord cells (hUTCs) encapsulated in DPA gel; 2% DPA, 100,000 cells, calcium chloride added, after 7 days of culture, Live/Dead; read-out: Viability of hUTC cells in the gels
Description: The viability and proliferation of cells in the gels was evaluated by encapsulating human umbilical cord cells (hUTCs) in the gels. hUTCs were isolated as described in U.S. Pat. No. 7,510,873. Cells were thawed from storage and cultured for four days in Hayflick media. After four days, the cells were trypsinized and counted by the Guava ViaCount methodology (Millipore, Billerica, Mass.). Cells were re-suspended in Hayflick media at a density of 1,000,000 cells/ml. Encapsulation of the cells in the gels was achieved by adding 100 μl cell suspension to 100 μl of a 4 wt % DPA solution in ultrapure in a 24 well plate, resulting in a final DPA concentration of 2%. The gels were incubated for 1 h at 37° C., 5% CO2 after which 1000 μl media was added on top of the gel. Cells were incubated at 37° C., 5% CO2. Every 3-4 days of culture, 500 μl media was replaced.
After mixing of the cell suspension and 4% DPA solution by pipetting up and down, the protocol described above was modified by adding 10 μl 100 mg/ml calcium chloride solution upon which gelation occurred. Final concentrations are 2% in DPA and 100,000 cells. Control gels without cells were prepared by using pure media and additional cell only and cells with calcium chloride controls were prepared as standard 2D culture. After 7 days of culture, the gels were assayed with Live/Dead assay for cell viability and Invitrogen CyQuant GR assay for cell proliferation (Invitrogen, Carlsbad, Calif.). The Live/Dead was performed as described in the provided protocol but at half the […] concentration to reduce non-specific fluorescence due to dye absorption. […] The cells in the gels contained a lot of viable cells (FIG. 410). No dead cells could be observed in the gels. Therefore, the viability of these cells in the gels is very high (>95%).
In a second experiment, 100,000 hUTC cells were encapsulated in 2 wt % Gly-Phe-Gly-Phe-Gly-Phe-Gly-Gln-Gln-Ser (SEQ ID NO: 8) DPA gels. The cells were cultured for 3 weeks and cells were assessed after 1, 2 and 3 weeks with Live/Dead.

[6] = Dissolution of DPA in ultrapure water; format: physicochemical; conditions: ultrapure water (>18 MΩ resistivity)
Description: as §1

[7] = 2 wt % DPA in DMEM, calcium chloride added, 25° C.

Row | Structure (SMILES) | Gelation (self-supporting gel on inversion), DMEM [1] | Concentration at which gel forms, PBS [1] | Gelation (self-supporting gel on inversion), PBS [1] | Gelation (self-supporting gel on inversion), Water ([1]; in water) | Concentration at which gel forms, DMEM [1] | Strain at which gel re-crosses the transition point (breakdown) ([2]; formed for 30 minutes) | Gel point after mixing [3] | Gelation (self-supporting gel on inversion), Calcium added [1] | Concentration at which gel forms, Calcium added [1] | Minimal concentration at which gel formed [1] | G′ after 10 minutes [3, 7] | other results
1 | CCCCCCCCCCCCCCCC(=O)NC(C(=O)NCC(=O)N[C@@H](Cc1ccccc1)C(=O)NCC(=O)N[C@@H](Cc1ccccc1)C(=O)NCC(=O)N[C@@H](Cc1ccccc1)C(=O)NCC(=O)N[C@@H](CC(N)=O)C(=O)N[C@@H](CC(N)=O)C(=O)N[C@@H](CO)C(=O)O)C(=O)NCC(=O)N[C@@H](Cc1ccccc1)C(=O)NCC(=O)N[C@@H](Cc1ccccc1)C(=O)NCC(=O)N[C@@H](Cc1ccccc1)C(=O)NCC(=O)N[C@@H](CC(N)=O)C(=O)N[C@@H](CC(N)=O)C(=O)N[C@@H](CO)C(=O)O [Gly-Phe-Gly-Phe-Gly-Phe-Gly-Asn-Asn-Ser] | Yes, | 4% | Yes, | Yes, | 2% | 42 % strain | instantaneous |  |  |  |  | Concentration at which gel forms, Water ([1]; in water): 2%; Initial strength in strain sweep, comparison [2]: highest initial strength; Strain at which decline in properties starts ([2]; formed for 30 minutes): 15 % strain; Strain at which gel re-crosses the transition point (breakdown) ([2]; formed for 30 minutes, listed as Asn-Asn-Ser (SEQ ID NO: 29)): 40 % strain; Rheological properties in kinetics of formation experiment, comparison ([3]; polar, non-charged solubility enhancing regions compared): highest rheological properties
2 | CCCCCCCCCCCCCCCC(=O)NC(C(=O)NCC(=O)N[C@H](C(=O)N[C@@H](C)C(=O)N[C@H](C(=O)N[C@@H](C)C(=O)N[C@H](C(=O)N[C@@H](C)C(=O)N[C@@H](CCC(=O)O)C(=O)NCC(=O)N[C@@H](CCC(=O)O)C(=O)O)C(C)C)C(C)C)C(C)C)C(=O)NCC(=O)N[C@H](C(=O)N[C@@H](C)C(=O)N[C@H](C(=O)N[C@@H](C)C(=O)N[C@H](C(=O)N[C@@H](C)C(=O)N[C@@H](CCC(=O)O)C(=O)NCC(=O)N[C@@H](CCC(=O)O)C(=O)O)C(C)C)C(C)C)C(C)C [Gly-Val-Ala-Val-Ala-Val-Ala-Glu-Gly-Glu] | No |  |  | No |  |  |  | Yes | 2 wt % | 2 weight percent | 140 Pa | Gross observations ([4]; 100 μl gel, intra-gluteal muscle pocket, day 3, no longer observed at other time points): some fluid buildup at day 3; Tissue response (histology) ([4]; 100 μl gel, intra-gluteal muscle pocket): some necrosis of the underlying tissue layer was observed; Tissue response (histology) ([4]; 100 μl gel, intra-gluteal muscle pocket, listed as Val-Ala-Val-Ala-Val-Ala-Glu-Gly-Glu (SEQ ID NO: 39)): necrosis of the underlying muscle tissue; viability at 168 h, 2 % [5]: > 95%
3 | CCCCCCCCCCCCCCCC(=O)NC(C(=O)NCC(=O)N[C@@H](Cc1ccccc1)C(=O)NCC(=O)N[C@@H](Cc1ccccc1)C(=O)NCC(=O)N[C@@H](Cc1ccccc1)C(=O)NCC(=O)N[C@@H](CCC(N)=O)C(=O)NCC(=O)N[C@@H](CO)C(=O)O)C(=O)NCC(=O)N[C@@H](Cc1ccccc1)C(=O)NCC(=O)N[C@@H](Cc1ccccc1)C(=O)NCC(=O)N[C@@H](Cc1ccccc1)C(=O)NCC(=O)N[C@@H](CCC(N)=O)C(=O)NCC(=O)N[C@@H](CO)C(=O)O [Gly-Phe-Gly-Phe-Gly-Phe-Gly-Gln-Gly-Ser] | Yes, | 2% | Yes, | No | 2% | 99 % strain | instantaneous |  |  |  |  | Gelation characteristics, qualitative comparison ([1]; compared to the SEQ ID NO: 8 DPA): formed more rapidly and appears to be stronger; Strain at which gel re-crosses the transition point (breakdown) ([2]; formed for 30 minutes, listed as Gln-Gly-Ser (SEQ ID NO: 30)): ~100 % strain
4 | CCCCCCCCCCCCCCCC(=O)NC(C(=O)N[C@@H](Cc1ccccc1)C(=O)NCC(=O)N[C@@H](Cc1ccccc1)C(=O)NCC(=O)N[C@@H](Cc1ccccc1)C(=O)NCC(=O)N[C@@H](CCCCN)C(=O)N[C@@H](C)C(=O)O)C(=O)N[C@@H](Cc1ccccc1)C(=O)NCC(=O)N[C@@H](Cc1ccccc1)C(=O)NCC(=O)N[C@@H](Cc1ccccc1)C(=O)NCC(=O)N[C@@H](CCCCN)C(=O)N[C@@H](C)C(=O)O [Phe-Gly-Phe-Gly-Phe-Gly-Lys-Ala] |  |  |  |  |  |  |  |  |  |  |  | Solubility in ultrapure water [6]: could not be solubilized
5 | CCCCCCCCCCCCCCCC(=O)NC(C(=O)NCC(=O)N[C@@H](Cc1ccccc1)C(=O)NCC(=O)N[C@@H](Cc1ccccc1)C(=O)NCC(=O)N[C@@H](Cc1ccccc1)C(=O)NCC(=O)N[C@@H](CCC(=O)O)C(=O)NCC(=O)N[C@@H](CCC(=O)O)C(=O)O)C(=O)NCC(=O)N[C@@H](Cc1ccccc1)C(=O)NCC(=O)N[C@@H](Cc1ccccc1)C(=O)NCC(=O)N[C@@H](Cc1ccccc1)C(=O)NCC(=O)N[C@@H](CCC(=O)O)C(=O)NCC(=O)N[C@@H](CCC(=O)O)C(=O)O [Gly-Phe-Gly-Phe-Gly-Phe-Gly-Glu-Gly-Glu] | No |  |  | No |  |  |  | Yes | 1 wt % | 1 weight percent | 4,000 Pa | Gross observations ([4]; in vivo): some fluid buildup at day 3; G′ after 10 minutes ([3]; 1 wt % DPA in DMEM, calcium chloride added, 25° C.): 300 Pa; Estimated final strength (extrapolation of the curve) ([3]; 2 wt % DPA in DMEM, calcium chloride added): ~10,000 Pa; G′ (strength) after 1 hour [3, 7]: 7,200 Pa; G′ after temperature raised to 37° C. ([3]; 2 wt % DPA, after 1 hour, temperature raised from 25° C. to 37° C.): 5,000 Pa; viability at 168 h [5]: > 95%
